Laboratory results published in the NIST ThermoML archive (doi:10.1016/j.jct.2010.09.006).

Assay: cn = amount concentration of the nth substance listed, in mol/dm3
Conditions: 101 kPa, Liquid, Taylor dispersion method

[Cl][Ni][Cl] [nickel chloride (NiCl2)] + O
binary diffusion coefficient [m2/s]
Conditions | c1 = 0 | c1 = 0.001 | c1 = 0.005 | c1 = 0.01 | c1 = 0.1
298.15 K | 1.26e-09 | 1.23e-09 | 1.12e-09 | 1.04e-09 | 9.86e-10
310.15 K | 1.4e-09 | 1.39e-09 | 1.37e-09 | 1.34e-09 | 1.29e-09
